What was measured:
[1] = biological target: T1, human recombinant CAVA (Homo sapiens, UniProt P35218); assay: Fluorescence-based thermal shift assay (FTSA), CAVA; type: binding; details: 37 °C, pH 7.0
T1 construct: Most isozymes were truncated, and only the catalytic domains of the proteins were produced; made in house; host or cells: bacterial expression system
Description: (§1) The binding affinities of the four NIR-fluorescent compounds to 12 catalytically active recombinant CA isozymes were determined by the fluorescence-based thermal shift assay (FTSA), and the dissociation constants (Kd’s) at physiological pH (pH 7.0) and 37 °C are listed in Table 1.
(§2) All 12 catalytically active human CA isozymes were prepared recombinantly as previously described. Most isozymes were truncated, and only the catalytic domains of the proteins were produced.[9],[56] All isozymes were expressed in a bacterial expression system except that CAIX was expressed in mammalian cells. The proteins were chromatographically purified via immobilized metal affinity chromatography, ion-exchange, or p-aminomethylbenzenesulfonamide-sepharose affinity chromatography. Protein purity was confirmed by SDS-PAGE, and MW was confirmed by mass spectrometry with 1 Da precision, as predicted from theoretical protein sequence.
(§3) The fluorescence-based thermal shift assay (FTSA) was used to determine the binding affinity of compounds for all catalytically active CA isozymes. The assay is based on the thermal stabilization of proteins by bound ligands and distinguishes itself in its ability to determine extremely high affinity (picomolar Kd) of compound binding to CAIX. The experiments were performed with a QIAGEN Rotor-Gene Q instrument using either the blue channel (365 ± 20 nm excitation and 460 ± 15 nm emission detection) or the green channel (470 ± 10 nm excitation and 510 ± 5 nm detection). The protein solution, in the absence and presence of various compound concentrations ranging from 3 to 200 μM (2× dilutions), was heated from 25 to 99 °C (heating rate, 1 °C/min). The CA isozyme melting temperature Tm was determined by following the fluorescence of 8-anilino-1-naphthalenesulfonate (ANS) or Glomelt dye. The samples consisted of 5 μM protein (or 10 μM CAIV), different concentrations of the tested compound, and 50 μM ANS or 200× diluted Glomelt in 50 mM sodium phosphate buffer (at pH 7.0) containing 100 mM sodium chloride and 2–4% (v/v) dimethyl sulfoxide. To obtain the dissociation constant (at 37 °C), data analysis was performed, and the curves were fit using the Thermott Web server.[57]

[2] = biological target: T2, human recombinant CAVII (Homo sapiens, UniProt P43166); assay: Fluorescence-based thermal shift assay (FTSA), CAVII; type: binding; details: 37 °C, pH 7.0
T2 construct: made in house; host or cells: bacterial expression system
T2 sequence (P43166 whole entry): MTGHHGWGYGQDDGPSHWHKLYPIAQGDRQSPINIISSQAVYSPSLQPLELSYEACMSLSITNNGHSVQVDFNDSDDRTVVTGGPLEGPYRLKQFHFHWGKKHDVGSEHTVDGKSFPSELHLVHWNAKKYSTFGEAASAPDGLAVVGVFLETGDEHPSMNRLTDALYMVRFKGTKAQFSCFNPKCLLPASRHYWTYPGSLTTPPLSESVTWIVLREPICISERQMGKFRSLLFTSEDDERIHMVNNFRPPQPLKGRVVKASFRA
Description: as §1, §2
as §3, with “To obtain the dissociation constant (at 37 °C), data analysis was performed, and the curves were fit using the Thermott Web server.[57]” left out

[3] = biological target: T3, CAIX expressed on cell membranes of HeLa cells (Homo sapiens, UniProt Q16790); assay: Fluorescence microscopy staining of live HeLa cells; type: cell-based; details: for staining of HeLa cells (NIR fluorescence microscopy): 250 nM compound, pCMV-CAIX-transfected cells, normoxia
T3 construct: an open reading frame for the full-length CAIX protein (1–459 amino acids) without a tag; expressed in transfected cells; host or cells: HeLa cells transfected with pCMV-CAIX (TurboFect), normoxia
Description: Live HeLa cell culture was used for visualization of the NIR-fluorescent compound binding to CAIX expressed on cell membranes (Figures 3 and S2). […] Hypoxic conditions were insufficient for CAIX-specific fluorescence detection (Figure S3). Transfected cells expressed 10-fold more CAIX protein than cells grown under hypoxia, as determined by dosing the fluorescein-containing compound GZ19-32. […] We should point out that microphotographs in Figures 3 and S2 were taken at different exposure times to ensure good visualization quality. Nevertheless, all four compounds were suitable for direct visualization of CAIX expressed on transfected cell membranes.
For visualization of CAIX in live cells, HeLa cells were seeded in 12-well plates, and the next day they were transfected with the pCMV-CAIX plasmid to induce CAIX expression under normoxia. The TurboFect Transfection Reagent (Thermo Fisher) was used for this purpose according to manufacturer’s directions. Cells were stained and visualized next day after transfection. Nontransfected cells, grown under normoxia, were used as a control. For the induction of CAIX expression without transfection, cells were cultured under hypoxia for 3 days.
For cell imaging, live cells were incubated with the recombinant monoclonal antibody to CAIX (M75) (Absolute Antibody, #Ab00414–1.1) in the CO2 incubator for 30 min. The antibody stock solution (1 mg/mL) was used at a dilution of 1:150 in FluoroBright (FB)(Thermo Fisher) medium. After washing (3 × 5 min with DMEM in RT, gentle rock), cells were incubated with secondary Alexa Fluor 488 goat antimouse antibodies (2 mg/mL, Thermo Fisher), at a dilution of 1:200 in FB, in a CO2 incubator for 30 min. After washing (3 × 5 min with DMEM in RT and 2 × 1 min with PBS), cells were incubated with NIR-fluorescent inhibitors ([…] in PBS) in a CO2 incubator for 5–8 min. After washing (2 min + 2 × 1 min with PBS), PBS was replaced by FB, and 15 μL of NucBlue Live Cell Stain ReadyProbes reagent (Thermo Fisher) was added per well. After 5 min, cells were observed and photographed using an automated fluorescence microscope EVOS FL Auto (Thermo Fisher).

[4] = Absorption, emission and fluorescence quantum yield measurement; type: physicochemical; details: for λabs: absorption spectrum; for λem (fluorescence maximum): emission spectrum
Description: Figure S1. Absorption and emission spectra of NIR inhibitors. GZ22-1 λ abs= 783 nm, λ em= 807
Norm. absorption (arb. units)
Norm. photoluminescence (arb. units)
Norm absorption (arb. units) […]
Table S1. Fluorescence quantum yield comparison of NIR-fluorescent compounds. Compound
concentration was 100 nM in PBS. L a-c – excitation radiation integrals, P b-c – fluorescence
Nr. Compound Excitation La Lb Lc A(1) Pb Pc QY(2)
(1)Sample absorbance . (2)Fluorescence quantum yield: .LPc―(1―A)Pb […]

T1 sequence (P35218 39-296 limits assumed): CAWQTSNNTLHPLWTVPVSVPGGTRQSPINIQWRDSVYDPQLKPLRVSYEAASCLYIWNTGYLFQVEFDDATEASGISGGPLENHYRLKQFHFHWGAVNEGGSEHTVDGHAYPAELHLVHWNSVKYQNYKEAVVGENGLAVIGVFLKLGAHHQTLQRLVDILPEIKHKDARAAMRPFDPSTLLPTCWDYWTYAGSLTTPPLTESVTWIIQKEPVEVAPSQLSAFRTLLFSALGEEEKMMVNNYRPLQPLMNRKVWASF

Kd [1] [nM]	Kd [2] [nM]	λabs [4] [nm]	λem (fluorescence maximum) [4] [nm]	fluorescence signal compared to the other compounds at identical exposure conditions ([3]; 250 nM, transfected HeLa, Cy7 filter)	QY (fluorescence quantum yield) ([4]; 100 nM in PBS, excitation 650nm)	Structure (SMILES)	staining of HeLa cells (NIR fluorescence microscopy) [3]
1000	30	783	807			CC1(C)C(/C=C/C2=C(Oc3ccc(CCC(=O)NCCCOCCOCCOCCCNC(=O)CCS(=O)(=O)c4c(F)c(F)c(S(N)(=O)=O)c(F)c4NC4CCCCCCC4)cc3)C(=C/C=C3\N(CCCCS(=O)(=O)[O-])c4ccccc4C3(C)C)/CCC2)=[N+](CCCCS(=O)(=O)[O-])c2ccccc21.[Na+] [GZ22-1, Sodium 4-((Z)-2-((E)-2-(2-(4-(21-((2-(Cyclooctylamino)-3,5,6-trifluoro-4-sulfamoylphenyl)sulfonyl)-3,19-dioxo-8,11,14-trioxa-4,18-diazahenicosyl)phenoxy)-3-((E)-2-(3,3-dimethyl-1-(4-sulfonatobutyl)-3H-indol-1-ium-2-yl)vinyl)cyclohex-2-en-1-ylidene)ethylidene)-3,3-dimethylindolin-1-yl)butane-1-sulfonate]	stained the membranes of pCMV-CAIX-transfected cells
2000		783	805			CC1(C)C(/C=C/C2=C(Oc3cccc(CC(=O)NCCCOCCOCCOCCCNC(=O)CCS(=O)(=O)c4c(F)c(F)c(S(N)(=O)=O)c(F)c4NC4CCCCCCC4)c3)C(=C/C=C3\N(CCCCS(=O)(=O)[O-])c4ccccc4C3(C)C)/CCC2)=[N+](CCCCS(=O)(=O)[O-])c2ccccc21.[Na+] [GZ21-19, Sodium 4-((Z)-2-((E)-2-(2-(3-(20-((2-(Cyclooctylamino)-3,5,6-trifluoro-4-sulfamoylphenyl)sulfonyl)-2,18-dioxo-7,10,13-trioxa-3,17-diazaicosyl)phenoxy)-3-((E)-2-(3,3-dimethyl-1-(4-sulfonatobutyl)-3H-indol-1-ium-2-yl)vinyl)cyclohex-2-en-1-ylidene)ethylidene)-3,3-dimethylindolin-1-yl)butane-1-sulfonate]	stained the membranes of pCMV-CAIX-transfected cells
2000	40	783	807	best fluorescence signal		CC1(C)C(/C=C/C2=C(Oc3ccc(CCC(=O)NCCOCCOCCOCCOCCOCCOCCOCCOCCOCCOCCOCCNC(=O)CCS(=O)(=O)c4c(F)c(F)c(S(N)(=O)=O)c(F)c4NC4CCCCCCC4)cc3)C(=C/C=C3\N(CCCCS(=O)(=O)[O-])c4ccccc4C3(C)C)/CCC2)=[N+](CCCCS(=O)(=O)[O-])c2ccccc21.[Na+] [GZ22-4, Sodium 4-((Z)-2-((E)-2-(2-(4-(43-((2-(Cyclooctylamino)-3,5,6-trifluoro-4-sulfamoylphenyl)sulfonyl)-3,41-dioxo-7,10,13,16,19,22,25,28,31,34,37-undecaoxa-4,40-diazatritetracontyl)phenoxy)-3-((E)-2-(3,3-dimethyl-1-(4-sulfonatobutyl)-3H-indol-1-ium-2-yl)vinyl)cyclohex-2-en-1-ylidene)ethylidene)-3,3-dimethylindolin-1-yl)butane-1-sulfonate]	stained the membranes of pCMV-CAIX-transfected cells
10000	60	637			0.43	CC1(C)C(/C=C/C2=C(NCCCOCCOCCOCCCNC(=O)CCC(=O)NCCS(=O)(=O)c3c(F)c(F)c(S(N)(=O)=O)c(F)c3NC3CCCCCCC3)C(=C/C=C3\N(CCCCS(=O)(=O)[O-])c4ccccc4C3(C)C)/CCC2)=[N+](CCCCS(=O)(=O)[O-])c2ccccc21.[Na+] [AZ21-6, Sodium 4-((Z)-2-((E)-2-(2-((1-((2-(Cyclooctylamino)-3,5,6-trifluoro-4-sulfamoylphenyl)sulfonyl)-4,7-dioxo-12,15,18-trioxa-3,8-diazahenicosan-21-yl)amino)-3-((E)-2-(3,3-dimethyl-1-(4-sulfonatobutyl)-3H-indol-1-ium-2-yl)vinyl)cyclohex-2-en-1-ylidene)ethylidene)-3,3-dimethylindolin-1-yl)butane-1-sulfonate]	stained the membranes of pCMV-CAIX-transfected cells

— PMC11191402, “High-Affinity NIR-Fluorescent Inhibitors for Tumor Imaging via Carbonic Anhydrase IX” (Bioconjugate Chemistry, 2024)
